# Reference: EP4509511A1, “SUBSTITUTED SPIRO-ISOXAZOLINYL LACTAMS, SALTS THEREOF AND THEIR USE AS HERBICIDALLY ACTIVE SUBSTANCES” (Bayer Aktiengesellschaft, priority 2023, dated 2025)
# Experiments:
# MATIN [1] = assay: Herbicidal pre-emergence action - Part I; type: in vivo, Matricaria inodora; conditions: visual grading after ca. 3 weeks vs untreated controls
# In short: (§1)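 Pre-emergence soil-surface spray, 1280 g/ha or lower, WP/EC formulations plus 0.5% additive, 600 l/ha water. Pots of sandy loam, double sowing mono/dicot weeds. Greenhouse, optimum conditions; % herbicidal effect scored visually at ~3 wk, 100% = plants died, 0% = as control.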
# SETVI = assay: Herbicidal pre-emergence action - Part I; type: in vivo, Setaria viridis; conditions: visual grading after ca. 3 weeks vs untreated controls
# In short: as §1
# AMARE [2] = assay: Herbicidal pre-emergence action - Part I; type: in vivo, Amaranthus retroflexus; conditions: for pre-emergence activity at 320g/ha against AMARE in % / pre-emergence activity at 1280g/ha against AMARE in %: visual grading after ca. 3 weeks vs untreated controls
# In short: as §1
# ALOMY = assay: Herbicidal pre-emergence action - Part I; type: in vivo, Alopecurus myosuroides; conditions: visual grading after ca. 3 weeks vs untreated controls
# From the text: (§2) Seeds of mono- and dicotyledonous weed plants were sown in plastic pots (double sowings with one species of mono- and one species of dicotyledonous weed plants per pot), in sandy loam, and covered with soil. The compounds according to the invention, formulated in the form of wettable powders (WP) or as emulsifiable concentrates (EC), were applied to the surface of the covering soil as aqueous suspension or emulsion, with the addition of 0.5% of an additive, at an application rate of 600 1 of water per hectare (converted). Following treatment, the pots were placed in a greenhouse and kept under optimum growth conditions for the test plants. The visual grading of the damage to the test plants was carried out after ca. 3 weeks in comparison to untreated controls (herbicidaleffectinpercent(%):100%effect=plantshavediedoff,0%effect=ascontrolplants). [formula]
# (§3) Tables A1 to A12, below, show the effects of selected compounds of the general formula (I) according to table 1 on various harmful plants and an application rate corresponding to 1280 g/ha or below obtained by the experimental procedure mentioned above. Table A1: pre-emergence activity at 1280g/ha against ABUTH in %
# ABUTH = assay: Herbicidal post-emergence action - Part I; type: in vivo, Abutilon theophrasti; conditions: 1280 g/ha, one-leaf stage, rated visually after about 3 weeks vs untreated controls
# In short: (§4)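 Greenhouse weeds grown in sandy loam were sprayed post-emergence at the one-leaf stage, 2-3 weeks after sowing. Compounds were applied as WP or EC in water with 0.5% additive at 600 L/ha, at 1280 g/ha or below. Visual damage was rated after about 3 weeks versus untreated plants (0-100%).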
# POAAN = assay: Herbicidal post-emergence action - Part I; type: in vivo, Poa annua; conditions: 1280 g/ha, one-leaf stage, rated visually after about 3 weeks vs untreated controls
# In short: as §4
# AMARE [3] = assay: Herbicidal post-emergence action - Part I; type: in vivo, Amaranthus retroflexus; conditions: one-leaf stage, rated visually after about 3 weeks vs untreated controls
# In short: as §4
# DIGSA = assay: Herbicidal post-emergence action - Part I; type: in vivo, Digitaria sanguinalis; conditions: one-leaf stage, rated visually after about 3 weeks vs untreated controls
# Experimental: Seeds of mono- and dicotyledonous weed plants were placed in plastic pots in sandy loam soil (doubly sown with in each case one species of mono- or dicotyledonous weed plants per pot), covered with soil and cultivated in a greenhouse under controlled growth conditions. 2 to 3 weeks after sowing, the test plants were treated at the one-leaf stage. The compounds of the invention, formulated in the form of wettable powders (WP) or as emulsion concentrates (EC), were applied onto the green parts of the plants as aqueous suspension or emulsion with addition of 0.5% additive at a water application rate of 600 liters per hectare (converted). After the test plants had been kept in the greenhouse under optimum growth conditions for about 3 weeks, the activity of the preparations was rated visually in comparison to untreated controls. For example, 100% activity = the plants have died, 0% activity = like control plants. Tables B1 to B12, below, show the effects of selected compounds of the general formula (I) according to table 1 on various harmful plants and an application rate corresponding to 1280 g/ha or below obtained by the experimental procedure mentioned above. Table B1a: post-emergence activity at 1280g/ha against ABUTH in %
# LOLRI = assay: Herbicidal pre-emergence action - Part II; type: in vivo, Lolium rigidum; conditions: 320 g/ha; Table C7
# From the text: (§5) Seeds of mono- and dicotyledonous weed plants and crop plants were sown, in plastic or organic planting pots, in sandy loam and covered with soil. The compounds according to the invention, formulated in the form of wettable powders (WP) or as emulsifiable concentrates (EC), were applied to the surface of the covering soil as aqueous suspension or emulsion, with the addition of 0.5% of an additive, at an application rate of 600 1 of water/ha (converted). Following treatment, the pots were placed in a greenhouse and kept under optimum growth conditions for the test plants. The visual grading of the damage to the test plants was carried out after ca. 3 weeks in comparison to untreated controls (herbicidal effect in percent (%): 100% effect = plants have died off, 0% effect = as control plants). Tables C1 to C12 below show the effects of selected compounds of the general formula (I) according to table 1 on various harmful plants and an application rate corresponding to 320 g/ha or below obtained by the experimental procedure mentioned above. Table C1: pre-emergence activity at 320g/ha against ABUTH in %
# MATIN [4] = assay: Herbicidal pre-emergence action - Part II; type: in vivo, Matricaria inodora; conditions: 320 g/ha; Table C8
# From the text: as §5
# VIOTR = assay: Herbicidal pre-emergence action - Part II; type: in vivo, Viola tricolor
# From the text: as §5
# VERPE = assay: Herbicidal pre-emergence action - Part I; type: in vivo, Veronica persica; conditions: visual grading after ca. 3 weeks vs untreated controls
# From the text: as §2, §3
# BRSNW = assay: Pre-emergence effects on crop plants; type: in vivo, Brassica napus; conditions: 80 g/ha; Table D5; crop plant
# From the text: Seeds of mono- and dicotyledonous weed plants and crop plants were sown, in plastic or organic planting pots, in sandy loam and covered with soil. The compounds according to the invention, formulated in the form of wettable powders (WP) or as emulsifiable concentrates (EC), were applied to the surface of the covering soil as aqueous suspension or emulsion, with the addition of 0.5% of an additive, at an application rate of 600 1 of water/ha (converted). Following treatment, the pots were placed in a greenhouse and kept under optimum growth conditions for the test plants. The visual grading of the damage to the test plants was carried out after ca. 3 weeks in comparison to untreated controls (herbicidal effect in percent (%): 100% effect = plants have died off, 0% effect = as control plants). Tables D1 to D5 below show the effects of various compounds of the general formula (I) according to Table 1 on various crop plants and an application rate corresponding to 320 g/ha or below obtained by the experimental procedure mentioned above in Biological Examples, Section C. Table […]: pre-emergence activity at 320g/ha against ZEAMX in %
Compound,pre-emergence activity at 320g/ha against MATIN in % (MATIN [1]),pre-emergence activity at 1280g/ha against MATIN in % (MATIN [1]),pre-emergence activity at 320g/ha and against SETVI in % (SETVI),pre-emergence activity at 1280g/ha and against SETVI in % (SETVI),pre-emergence activity at 320g/ha against AMARE in % (AMARE [2]),pre-emergence activity at 1280g/ha against AMARE in % (AMARE [2]),pre-emergence activity at 1280g/ha against ALOMY in % (ALOMY),post-emergence activity at 1280g/ha against POAAN in % (POAAN),post-emergence activity at 1280g/ha against AMARE in % (AMARE [3]),pre-emergence activity against LOLRI (LOLRI),pre-emergence activity at 1280g/ha against VERPE in % (VERPE),pre-emergence activity against BRSNW (BRSNW),further results
Cc1ccsc1C1=NOC2(CCCN(Cc3c(F)cccc3F)C2=O)C1 (racemic) [Compound I-2],90%,90%,100%,100%,90%,90%,90%,90%,90%,90%,,,"pre-emergence activity at 80g/ha and against SETVI in % (SETVI; 80 g/ha): 100%; post-emergence activity at 1280g/ha against ABUTH in % (ABUTH): 90%; post-emergence activity at 320g/ha against DIGSA in % (DIGSA; 320 g/ha): 90%; post-emergence activity at 1280g/ha against DIGSA in % (DIGSA; 1280 g/ha): 90%; pre-emergence activity against MATIN (MATIN [4]): 90%; pre-emergence activity against VIOTR (VIOTR; 80 g/ha, Table C12b): 90%; pre-emergence activity against VIOTR (VIOTR; 320 g/ha, Table C12a): 90%"
"Cc1ccsc1C1=NOC2(CCN(Cc3c(F)cccc3F)C2=O)C1 (racemic) [Compound I-16, 7-(2,6-Difluorobenzyl)-3-(3-methyl-2-thienyl)-1-oxa-2,7-diazaspiro[4.4]non-2-en-6-one]",90%,90%,100%,100%,90%,90%,90%,90%,,100%,100%,20%,
O=C1N(Cc2ccccc2F)CCC12CC(c1c(F)cccc1F)=NO2 (racemic) [Compound I-10],90%,90%,90%,100%,90%,90%,,,90%,80%,90%,20%,"pre-emergence activity at 80g/ha against AMARE in % (AMARE [2]; 80 g/ha, 504 h): 90%; post-emergence activity at 80g/ha against AMARE in % (AMARE [3]; 80 g/ha): 90%; post-emergence activity at 320g/ha against AMARE in % (AMARE [3]; 320 g/ha): 90%"
